Assay results published in patent US7507739B2, “6-[(substituted)phenyl]triazolopyrimidines as anticancer agents” (Wyeth, priority 2003, dated 2009).
Like-named read-outs stand apart in the source and are kept apart here.

Tests used:
pure tubulin = assay: Tubulin polymerization test with pure tubulin without GTP; type: biochemical, bovine; settings: no GTP
Description: (§1) Medium is RPMI-1640 with L-glutamine, supplemented with 10% heat-inactivated fetal calf serum, 100 units/ml penicillin, and 100 μg/ml streptomycin (Gibco, Grand Island, N.Y.). Microtubule-associated protein (MAP)-rich tubulin, containing about 70% tubulin and 30% MAPs (#ML113), and highly purified tubulin (>99% pure, #TL238), both from bovine brain, are obtained from Cytoskeleton, Inc., Denver, Colo. PEM buffer (80 mM piperazine-N,N′-bis[2-ethanesulfonic acid], pH 6.9, 1 mM ethylene glycol-bis(β-aminoethyl ether)-N,N,N′,N′-tetraacetic acid, 1 mM magnesium chloride) and guanosine 5′-triphosphate (GTP) are also obtained from Cytoskeleton. [3H]paclitaxel, specific activity 14.7 Ci/mmol, is purchased from Moravek Biochemicals (Brea, Calif.). [^3H]vinblastine, specific activity 9.60 Ci/mmol and MicroSpin G-50 columns are obtained from Amersham Biosciences (Piscataway, N.J.). […] Other reagents are obtained from Sigma (St. Louis, Mo.).
Two variations of this procedure are done, one using MAP-rich tubulin and one using pure tubulin.
The procedure with pure tubulin is similar except for the following changes. […] The supernatant after centrifugation is dispensed to a 96-well plate already containing compounds. Each compound is tested in duplicate at six serial 3-fold dilutions starting at 24.3 μM. The plate reader is thermostated at 35°.

S1-M1 cells = assay: MTS cytotoxicity test with S1-M1 cells (MXR); type: cell-based, human; settings: for IC50: Homo sapiens, read-out: IC50 S1-M1; for Ratio: IC50 on S1-M1 cells/IC50 on S1 cells
From the text: (§2) Human cancer cell lines, unless otherwise noted, are obtained from the American Type Culture Collection (Rockville, Md.). The following drug-sensitive parental cell lines, and their derived drug-resistant counterparts, are obtained from the originators as listed: (a) S1 (parental line from a subclone of human colon carcinoma line LS174T) and derived S1-M1-3.2 (herein called S1-M1) which expresses the MXR drug transporter protein, are provided by Dr. L. Greenberger, Wyeth Research (Rabindran, S. K., He, H., Singh, M., Brown, E., Collins, K. I., Annable, T., and Greenberger, L. M. Reversal of a novel multidrug resistance mechanism in human colon carcinoma cells by fumitremorgin C. Cancer Res., 58:5850-5858,1998); (b) parental HL-60 human promyelocytic leukemia line and derived HL-60/ADR, which expresses the MRP1 drug transporter protein, are provided by Dr. M. Center, University of Kansas (McGrath, T., and Center, M. S. Adriamycin resistance in HL60 cells in the absence of detectable P-glycoprotein. Biochem. Biophys. […] J. Biol. Chem., 261: 7762-7770,1986) via Dr. L. Greenberger, Wyeth Research.
(§3) The assay, which is sold in kit form by Promega (Madison, Wis.; CellTiter 96 AQueous Non-Radioactive Cell Proliferation Assay), is based on the conversion by viable cells, but not by dead cells, of the tetrazolium salt, MTS (3-(4,5-dimethylthiazol-2-yl)-5-(3-carboxymethoxyphenyl)-2-(4-sulphophenyl)-2H-tetrazolium, inner salt), into a water-soluble colored formazan which is detected by spectrophotometry. Compounds are tested at nine concentrations, in order to determine IC50 values. For the test procedure, cells are harvested by trypsinization (or, in the case of non-adherent cells, by simple resuspension), washed, counted and distributed to wells of 96-well flat-bottom microtiter plates at 1000 cells per well in 200 μL of medium. In addition, one row of wells on a separate plate received cells as above (“time 0” plate). All plates are incubated at 37° in humidified 5% CO2 in air for about 24 hr.
(§4) On day 2, compounds for test are diluted and added to wells. Compounds are dissolved in DMSO at 10 mg/mL. For each compound, nine serial 2-fold dilutions are prepared in DMSO. Ten μL of each dilution in DMSO is transferred to 100 μL of medium, mixed well, and then 5 μL of this dilution is transferred in quadruplicate to wells containing cells. […] Plates are returned to the incubator for three days. At the time of drug addition to the experimental plates, the MTS assay is run on the “time 0” plate. This produced the “time 0 MTS value” which is related to the number of viable cells per well at the time of drug addition.
(§5) After three days of culture with test compounds (day 5 overall), the MTS assay is done on all wells of the experimental plates. The absorbance values of the quadruplicate sample wells are averaged and divided by the average of the “time 0” values. […] The nine values for each compound are plotted against concentration, and the concentration that produced a relative color yield half way between the maximum and minimum is taken as the IC50 value.
S1-M1 cells overexpress the MXR transporter which mediates resistance to some chemotherapeutics (Gottesman, M. M., Fojo, T., and Bates, S. E. Miltidrug resistance in cancer: role of ATP-dependent transporters. Nature Rev. Cancer, 2: 48-58, 2002). The IC50 values of representative examples of this invention, as well as reference compounds, on S1-M1 are compared to values on the sensitive parental S1 line.

tubulin heterodimer = assay: Competitive binding test, [3H]vinblastine; set-up: species or system bovine; settings: [3H]vinblastine 100 nM
Description: as §1
The binding of examples of this invention to highly purified tubulin is studied by competitive inhibition methods. […] To study possible competition at the taxane site, on the other hand, polymerized tubulin (microtubules) is used because paclitaxel binds preferentially to microtubules.
Highly purified tubulin is dissolved in PEM buffer without GTP and used at a final concentration of 1.0 to 1.3 mg/ml (10 to 13 μM). […] These solutions are incubated at 24° for 1 hr and then applied to MicroSpin G-50 columns which are centrifuged for 2 min at 3000 rpm in an Eppendorf 5415C microfuge. An aliquot of each column effluent (containing tubulin and bound radioligand) is mixed with scintillation fluid and counted in a liquid scintillation spectrometer. […] The ability of the competitor to inhibit the binding of the radioligand is expressed as a percentage of control binding in the absence of any competitor.

HL-60 cells = assay: MTS cytotoxicity test with HL-60 cells; type: cell-based; settings: Homo sapiens
From the text: as §2, §3, §4, §5
HL-60/ADR cells overexpress the multidrug resistance protein MRP1 which mediates resistance to some chemotherapeutics (Gottesman, M. M., Fojo, T., and Bates, S. E. Multidrug resistance in cancer: role of ATP-dependent transporters. Nature Rev. Cancer, 2: 48-58, 2002). The IC50 values of representative examples of this invention, as well as reference compounds, on HL-60/ADR are compared to values on the sensitive parental HL-60 line.

[1] = HL-60 cells, MTS, read-out: IC50 HL-60

SMILES | absorbance increase, polymerization of pure tubulin (pure tubulin; 2.7 μM) | absorbance increase, polymerization of pure tubulin (pure tubulin; 8.1 μM) | A340 at 0 min (pure tubulin; 24.3 μM) | A340 at 5 min (pure tubulin; 24.3 μM) | A340 at 10 min (pure tubulin; 24.3 μM) | A340 at 15 min (pure tubulin; 24.3 μM) | A340 at 20 min (pure tubulin; 24.3 μM) | absorbance increase, polymerization of pure tubulin (pure tubulin; 24.3 μM, first 5 min) | IC50 (S1-M1 cells; S1-M1 cells, MTS) [nM] | Ratio (S1-M1 cells) | [3H]Vinblastine binding, percent of control without competitor, Mean (tubulin heterodimer) [%] | IC50 (HL-60 cells; [1]) [nM] | IC50 (S1-M1 cells) [nM] | IC50 (HL-60 cells; HL-60, read-out: IC50 HL-60) [nM]
C[C@H](Nc1c(-c2c(F)cc(OCCCN(C)C)cc2F)c(Cl)nc2ncnn12)C(F)(F)F.Cl [Example 1a, 5-chloro-6-{4-[3-(dimethylamino)propoxy]-2,6-difluorophenyl}-N-[(1S)-2,2,2-trifluoro-1-methylethyl][1,2,4]triazolo[1,5-a]pyrimidin-7-amine hydrogen chloride Salt] | no effect | lower and less rapid increase | 0 | 0.22 | 0.23 | 0.22 | 0.21 | rapid increase in absorbance | 75 | 1.0 | 12 | 71 | – | –
CNCCCOc1cc(F)c(-c2c(Cl)nc3ncnn3c2N[C@@H](C)C(F)(F)F)c(F)c1.Cl [Example 2a, 5-Chloro-6-{2,6-difluoro-4-[3-(methylamino)propoxy]phenyl}-N-[(1S)-2,2,2-trifluoro-1-methylethyl][1,2,4]triazolo[1,5-a]pyrimidin-7-amine hydrogen chloride] | no effect | lower and less rapid increase | 0 | 0.25 | 0.24 | 0.23 | 0.22 | rapid increase in absorbance | – | 1.0 | 11 | – | 69 | 43
CNCCCOc1cc(F)c(-c2c(Cl)nc3ncnn3c2NCC(F)(F)F)c(F)c1.Cl [Example 3a, 5-Chloro-6-{2,6-difluoro-4-[3-(methylamino)propoxy]phenyl}-N-(2,2,2-trifluoroethyl)[1,2,4]triazolo[1,5-a]pyrimidin-7-amine hydrogen chloride Salt] | no effect | lower and less rapid increase | 0 | 0.19 | 0.20 | 0.20 | 0.20 | rapid increase in absorbance | 71 | 1.2 | 11 | 26 | – | –
CN(C)CCCOc1cc(F)c(-c2c(Cl)nc3ncnn3c2NCC(F)(F)F)c(F)c1.Cl [Example 4a, 5-Chloro-6-{4-[3-(dimethylamino)propoxy]-2,6-difluorophenyl}-N-(2,2,2-trifluoroethyl)[1,2,4]triazolo[1,5-a]pyrimidin-7-amine Hydrogen chloride Salt] | no effect | lower and less rapid increase | 0 | 0.14 | 0.16 | 0.16 | 0.15 | rapid increase in absorbance | 73 | 1.0 | 15 | 52 | – | –
C[C@H](Nc1c(-c2c(F)cc(OCCCO)cc2F)c(Cl)nc2ncnn12)C(F)(F)F [Example 20, 3-[4-(5-Chloro-7-{[(1S)-2,2,2-trifluoro-1-methylethyl]amino}[1,2,4]triazolo[1,5-a]pyrimidin-6-yl)-3,5-difluorophenoxy]propan-1-ol] | – | – | 0 | 0.03 | 0.03 | 0.03 | 0.03 | – | 91 | 1.1 | 19 | 155 | – | –
C[C@H](Nc1c(-c2c(F)cc(OCCCN(C)C)cc2F)c(Br)nc2ncnn12)C(F)(F)F [Example 25, 5-Bromo-6-{4-[3-(dimethylamino)propoxy]-2,6-difluorophenyl}-N-[(1S)-2,2,2-trifluoro-1-methylethyl][1,2,4]triazolo[1,5-a]pyrimidin-7-amine] | no effect | lower and less rapid increase | 0 | 0.22 | 0.23 | 0.22 | 0.22 | rapid increase in absorbance | 84 | 0.80 | 14 | 104 | – | –
